pIC50: −log10 of the molar value.
Biological target: T1, M-phase inducer phosphatase 2 (Homo sapiens, UniProt P30305)
T1 sequence (P30305 whole entry): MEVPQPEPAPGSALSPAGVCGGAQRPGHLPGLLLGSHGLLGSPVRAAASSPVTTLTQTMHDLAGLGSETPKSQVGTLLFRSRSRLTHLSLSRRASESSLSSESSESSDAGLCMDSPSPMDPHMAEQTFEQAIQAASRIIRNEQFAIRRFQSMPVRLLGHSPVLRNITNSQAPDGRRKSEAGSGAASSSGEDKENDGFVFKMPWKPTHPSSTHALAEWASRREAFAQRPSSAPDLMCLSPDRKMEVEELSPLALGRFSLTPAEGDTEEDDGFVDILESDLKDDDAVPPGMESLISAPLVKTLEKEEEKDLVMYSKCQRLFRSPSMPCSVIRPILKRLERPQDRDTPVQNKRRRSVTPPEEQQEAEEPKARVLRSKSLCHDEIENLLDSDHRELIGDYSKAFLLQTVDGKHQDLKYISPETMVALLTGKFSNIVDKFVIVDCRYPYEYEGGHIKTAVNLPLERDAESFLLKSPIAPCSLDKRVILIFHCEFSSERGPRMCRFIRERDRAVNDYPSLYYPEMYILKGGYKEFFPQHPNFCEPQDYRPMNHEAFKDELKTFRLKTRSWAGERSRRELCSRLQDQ
Assay: Cdc25B phosphatase inhibition with DTT and catalase – biochemical, 25 mM DTT, probe assessment, dose response (AID 669)

## O=C(Nc1ccc2nc(-c3ccco3)c(-c3ccco3)nc2c1)N1CCCCCC1
  pIC50: 4.39

## CCOc1ccc2noc3c2c1C(=O)c1ccccc1-3 [MLS000106837]
  pIC50: < 4.30

## Nc1cccc2cnccc12 [isoquinolin-5-amine]
  pIC50: < 4.30

## c1ccc(CSc2nnc(-c3ccco3)c(-c3ccco3)n2)cc1 [MLS-0029114.0001]
  pIC50: < 4.30

## O=C(OC1CCCCC1)c1ccc2c(c1)C1C=CCC1C(C(=O)O)N2 (stereo not drawn) [SMR000019385]
  pIC50: 5.06

## Cc1ccc2c(c1C)NC(C(=O)O)C1CC=CC21 (stereo not drawn)
  pIC50: 4.69

## O=C(NC1(O)C(=O)c2ccccc2C1=O)c1ccccc1 [N-(2-hydroxy-1,3-dioxo-2-indenyl)benzamide]
  pIC50: < 4.30

## N#Cc1c(N2CCCC2)nc(N)c2c(N)nc(N3CCCC3)cc12 [SMR000061605]
  pIC50: < 4.30

## COc1cccc2c1NC(C(=O)O)C1CC=CC21 (stereo not drawn) [SMR000009698]
  pIC50: 4.88

## COc1ccc2noc3c2c1C(=O)c1ccccc1-3 [MLS000106874]
  pIC50: < 4.30

## [O-]/[N+](=C\c1ccncc1)c1ccccc1
  pIC50: < 4.30

## COc1cccc2c(C)c(C(=O)O)[nH]c12
  pIC50: 4.94

## CCn1nc(-c2ccccc2)nc2c(=O)n(C)c(=O)nc1-2 [1-Ethyl-6-methyl-3-phenyl-1H-pyrimido[5,4-e][1,2,4]triazine-5,7-dione]
  pIC50: < 4.30

## CC(=O)Nc1cc(OC(C)=O)c2nonc2c1OC(C)=O [Acetic acid 7-acetoxy-5-acetylamino-benzo[1,2,5]oxadiazol-4-yl ester]
  pIC50: < 4.30

## O=C(O)C1Nc2c(O)cccc2C2C=CCC12 (stereo not drawn)
  pIC50: 4.80

## CCn1nc(-c2cccs2)nc2c(=O)n(C)c(=O)nc1-2 [1-ethyl-6-methyl-3-thiophen-2-yl-pyrimido[5,4-e][1,2,4]triazine-5,7-dione]
  pIC50: < 4.30

## Cc1c(N=c2c(=O)c3ccccc3c2=O)c(=O)n(-c2ccccc2)n1C [MLS000105950]
  pIC50: < 4.30

## N#Cc1c(N)sc(=S)c2c1CCN(Cc1ccccc1)C2 [3-Amino-7-benzyl-1-thioxo-5,6,7,8-tetrahydro-1H-thiopyrano[3,4-c]pyridine-4-carbonitrile]
  pIC50: < 4.30

## CCOC(=O)C(C(=O)OCC)c1cc(Br)c2noc3c2c1C(=O)c1ccccc1-3 [MLS000038842]
  pIC50: < 4.30

## O=C1C=Cc2ccccc2C1=O [1,2-dihydronaphthalene-1,2-dione]
  pIC50: < 4.30

## Cn1ncnc2c(=O)n(C)c(=O)nc1-2
  pIC50: < 4.30

## Cc1ccccc1Nc1cc2ccccc2c(O)n1 [3-[(2-methylphenyl)amino]-2H-isoquinolin-1-one]
  pIC50: < 4.30

## Cc1ccc2c(c1)C1C=CCC1C(C(=O)O)N2 (stereo not drawn) [MLS-0067149.0001]
  pIC50: 4.92

## O=C1Cc2ccccc2C(=O)N1CCc1ccccc1 [2-(2-phenylethyl)-4H-isoquinoline-1,3-dione]
  pIC50: < 4.30

## [O-]/[N+](=C\c1ccc(OC(F)F)cc1)c1ccccc1 [1-[4-(difluoromethoxy)phenyl]-N-phenylmethanimine oxide]
  pIC50: < 4.30

## O=C1C=Cc2ccccc2/C1=C/NC12CN3CCN(CN(C3)C1)C2 [MLS000071484]
  pIC50: < 4.30

## COc1ccc(Br)cc1C=c1sc2nc(-c3ccco3)nn2c1=O [5-[(5-bromanyl-2-methoxy-phenyl)methylidene]-2-(furan-2-yl)-[1,3]thiazolo[3,2-b][1,2,4]triazol-6-one]
  pIC50: 4.78

## Oc1nc(Nc2ccccc2)cc2ccccc12 [MLS000043701]
  pIC50: < 4.30

— BindingDB's records for doi:10.7270/Q2SJ1J08 (University of Pittsburgh, 2007)
